Test system: C57Bl/6J (hIGF1R, Apc^Min/+) mice
Assay: Inhibition of polyposis in human IGF1R knock-in Apc Min/+ mice (adenoma number and diameter scored at postnatal day 80)
Assay type: in vivo
Settings: small intestine and colon, 19D12 0.02, 0.1, 0.5 mg/mouse i.p. once a week, celecoxib 150, 500, 1500 ppm in diet
Source text: In this example, the ability of anti-IGF1R antibody 19D12 (LCF/HCA: amino acids 20-128 of SEQ ID NO: 8 and 20-137 of SEQ ID NO: 10) to treat familial adenomatous polyposis (FAP) is established in a mouse model for the disease. The model comprises the Apc^Min/+ allele which imparts the FAP phenotype. A phenotype that results from the allele is increased development of intestinal adenomas. The Min mutant mouse has an autosomal dominant heterozygous nonsense mutation in the mouse Apc gene (see e.g., Su et al., Science (Wash D.C.) 256: 668-670 (1992)).
The Min mice are also engineered, by a knock-in mutation, to express the human IGF1R gene. Expression of the IGF1R gene, in the Min mouse, allows determination of the ability of an anti-IGF1R antibody to alleviate the FAP phenotype. […]
Small intestinal adenomas and colonic adenomas are scored for number and diameter at postnatal day 80. […] Small intestine surface area is calculated by summation of the multiples of length of each fixed segment by width, which is measured at the midpoint of each segment. Colon surface area is calculated by multiplying the length of the fixed material from the anorectal junction to the point of insertion of the small intestine, omitting the appendix, by the width at the midpoint. Raw numbers of adenomas observed as well as adenomas per unit of small intestine and colon surface area are calculated.

**Q.** For “19D12 (LCF/HCA): anti-IGF1R antibody 19D12 (LCF/HCA: amino acids 20-128 of SEQ ID NO: 8 and 20-137 of SEQ ID NO: 10)”, which “adenomas per unit surface area” value is on record?
**A.** dose-dependent reduction

**Q.** And the raw adenoma number?
**A.** dose-dependent reduction

Source: US8603465B1, “Methods for treatment of polyposis” (Merck Sharp & Dohme, Corp., priority 2006, dated 2013)
